Experimental data published in US20230131899A1, “INHIBITORS OF MICROBIALLY INDUCED AMYLOID” (Axial Therapeutics, Inc., priority 2020, published 2023).
pIC50: −log10 of the molar value. Read-outs that look alike come from different tables or passages of the source.

Tests used:
E. coli CsgA = biological target: T1, E. coli CsgA (Escherichia coli, UniProt P28307); assay: In vitro ThioflavinT assay of CsgA aggregation (CsgA ThT Assay); assay type: biochemical; conditions: 1005 minutes
T1 construct: made in house; host or cells: E. coli NEB 3016 slyD::kan, pET11d
T1 sequence (P28307 23-151): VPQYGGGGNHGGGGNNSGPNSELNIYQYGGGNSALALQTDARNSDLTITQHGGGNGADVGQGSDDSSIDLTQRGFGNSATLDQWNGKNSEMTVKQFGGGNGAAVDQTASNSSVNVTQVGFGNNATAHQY
Method in brief: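 Purified C-terminal His-tagged CsgA, monomerised by desalting and 30-kDa filtration, at 2-20 μM with 20-40 μM ThT in 50 mM potassium phosphate pH 7.3, 1% DMSO, compounds 3.125-200 uM; room temperature, fluorescence (ex 438/em 495 nm) read every 15 min. Background-subtracted signal expressed as percent inhibition versus vehicle at 6-6.5 or 8-9 h, or as percent control AUC.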

[1] = tested on: CsgA gene expression (csgBAC promoter-GFP reporter) in E. coli UTI89; assay: In vitro live cell fluorescent reporter assay of CsgA transcription (Reporter Assay); assay type: cell-based; conditions: Escherichia coli; for pIC50: read-out: Reporter Assay Abs IC50 (activity range), median Abs IC50 in the CsgA reporter assay, class symbol; for IC50: read-out: Reporter Assay Abs IC50 (μM), median Abs IC50 in the CsgA reporter assay, N/A = maximum expression reduction is <50% of control
Method in brief: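 Chromosomal single-copy csgBAC promoter–GFP reporter in E. coli UTI89, started at OD600 0.003 in YESCA broth with compound (0.14–100 μM, 1% DMSO), 20 h at 27 °C. GFP (ex 485/em 525 nm) background-subtracted and normalized to vehicle; IC50 and X[50] from curve fits. OD600 tracked growth effects.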

[2] = read-out: CsgA ThT Assay (10 μM CsgA) % Control AUC at 1005 minutes, 25 μM (activity range), CsgA 10 μM, black plates, compound 25 μM, class symbol
[3] = read-out: CsgA ThT Assay (10 μM CsgA) % Control AUC at 1005 minutes, 25 μM, mean AUC as % of DMSO control, CsgA 10 μM, black plates, compound 25 μM
[4] = read-out: CsgA ThT Assay (10 μM CsgA) % Control AUC at 1005 minutes, 100 μM (activity range), CsgA 10 μM, black plates, compound 100 μM, class symbol
[5] = read-out: CsgA ThT Assay (10 μM CsgA) % Control AUC at 1005 minutes, 100 μM, mean AUC as % of DMSO control, CsgA 10 μM, black plates, compound 100 μM

CCCN1CC(C(=O)O)n2c(c(-c3cccc(C(F)(F)F)c3)c(Cc3cccc4ccccc34)c(NCC3CCCC3)c2=O)S1(=O)=O (stereo not drawn) [Compound 128, 7-((cyclopentylmethyl)amino)-8-(naphthalen-1-ylmethyl)-6-oxo-2-propyl-9-(3-(trifluoromethyl)phenyl)-3,4-dihydro-2H,6H-pyrido[1,2-e][1,2,5]thiadiazine-4-carboxylic acid 1,1-dioxide]
remaining activity at 25 µM (E. coli CsgA; [2]): 11 to 31% | remaining activity at 25 µM (E. coli CsgA; [3]): 29% | remaining activity at 100 µM (E. coli CsgA; [4]): 11 to 31% | remaining activity at 100 µM (E. coli CsgA; [5]): 28% | pIC50 [1]: 5.35 to 5.89 | IC50 [1]: 2.2 µM

Nc1c(Cc2cccc3ccccc23)c(-c2cccc(C(F)(F)F)c2)c2n(c1=O)C(C(=O)O)CN(CCCCO)S2(=O)=O (stereo not drawn) [Compound 099, 7-amino-2-(4-hydroxybutyl)-8-(naphthalen-1-ylmethyl)-6-oxo-9-(3-(trifluoromethyl)phenyl)-3,4-dihydro-2H,6H-pyrido[1,2-e][1,2,5]thiadiazine-4-carboxylic acid 1,1-dioxide]
remaining activity at 25 µM (E. coli CsgA; [2]): 31 to 60% | remaining activity at 25 µM (E. coli CsgA; [3]): 56% | remaining activity at 100 µM (E. coli CsgA; [4]): 31 to 60% | remaining activity at 100 µM (E. coli CsgA; [5]): 44% | pIC50 [1]: < 5.00 | IC50 [1]: 17.6 µM

O=C(O)C1CS(=O)(=O)c2c(-c3cccc(C(F)(F)F)c3)c(Cc3cccc4ccccc34)cc(=S)n21 (single isomer, unassigned) [Compound 014b, 7-(naphthalen-1-ylmethyl)-5-thioxo-8-(3-(trifluoromethyl)phenyl)-2,3-dihydro-5H-thiazolo[3,2-a]pyridine-3-carboxylic acid 1,1-dioxide]
CsgA ThT Assay (10 μM CsgA) % Control AUC at 1005 minutes, 25 μM (activity range) (E. coli CsgA; CsgA 10 μM, black plates, compound 25 μM, class symbol): (+) (% control AUC of greater than 60%) | CsgA ThT Assay (10 μM CsgA) % Control AUC at 1005 minutes, 100 μM (activity range) (E. coli CsgA; CsgA 10 μM, black plates, compound 100 μM, class symbol): (+++) (% control AUC of 11 to 31%) | CsgA ThT Assay (10 μM CsgA) % Control AUC at 1005 minutes, 25 μM (E. coli CsgA; mean AUC as % of DMSO control, CsgA 10 μM, black plates, compound 25 μM): 71% | CsgA ThT Assay (10 μM CsgA) % Control AUC at 1005 minutes, 100 μM (E. coli CsgA; mean AUC as % of DMSO control, CsgA 10 μM, black plates, compound 100 μM): 26% | pIC50 [1]: < 5.00 | IC50 [1]: 44 µM

O=C(O)C1CNc2c(-c3cccc(C(F)(F)F)c3)c(Cc3cccc4ccccc34)cc(=O)n21 (stereo not drawn) [Compound 080, 7-(naphthalen-1-ylmethyl)-5-oxo-8-(3-(trifluoromethyl)phenyl)-1,2,3,5-tetrahydroimidazo[1,2-a]pyridine-3-carboxylic acid]
remaining activity at 25 µM (E. coli CsgA; [2]): > 60% | remaining activity at 25 µM (E. coli CsgA; [3]): 80% | remaining activity at 100 µM (E. coli CsgA; [4]): > 60% | remaining activity at 100 µM (E. coli CsgA; [5]): 72% | pIC50 [1]: < 5.00 | IC50 [1]: 26.3 µM

Nc1c(Cc2cccc3ccccc23)c(-c2cccc(C(F)(F)F)c2)c2n(c1=O)C(C(=O)O)CN(C[C@H](O)CO)S2(=O)=O (stereo partly drawn) [Compound 095, 7-amino-2-((S)-2,3-dihydroxypropyl)-8-(naphthalen-1-ylmethyl)-6-oxo-9-(3-(trifluoromethyl)phenyl)-3,4-dihydro-2H,6H-pyrido[1,2-e][1,2,5]thiadiazine-4-carboxylic acid 1,1-dioxide]
remaining activity at 25 µM (E. coli CsgA; [2]): > 60% | remaining activity at 25 µM (E. coli CsgA; [3]): 91% | remaining activity at 100 µM (E. coli CsgA; [4]): > 60% | remaining activity at 100 µM (E. coli CsgA; [5]): 70% | pIC50 [1]: < 5.00 | IC50 [1]: 25.9 µM

CNC(=O)CN1CC(C(=O)O)n2c(c(-c3cccc(C(F)(F)F)c3)c(Cc3cccc4ccccc34)cc2=O)S1(=O)=O (stereo not drawn) [Compound 049, 2-(2-(methylamino)-2-oxoethyl)-8-(naphthalen-1-ylmethyl)-6-oxo-9-(3-(trifluoromethyl)phenyl)-3,4-dihydro-2H,6H-pyrido[1,2-e][1,2,5]thiadiazine-4-carboxylic acid 1,1-dioxide]
remaining activity at 25 µM (E. coli CsgA; [2]): > 60% | remaining activity at 25 µM (E. coli CsgA; [3]): 74% | remaining activity at 100 µM (E. coli CsgA; [4]): 31 to 60% | remaining activity at 100 µM (E. coli CsgA; [5]): 35% | pIC50 [1]: 5.00 to 5.34 | IC50 [1]: 8.9 µM
